≈ marks a conversion by molar mass, not a printed value.
test system: Aspergillus flavus; experiment: Antifungal activity against Aspergillus flavus NCIM 524 assessed as growth inhibition after 3 to 4 days by serial plate dilution method; type: functional; conditions: not given

Row | SMILES | MIC [µg/mL]
1 | O=C(CCc1c[nH]c2ccc(Cl)cc12)NCCCc1c[nH]c2ccc(Cl)cc12 | 6.25 (≈ 15.1 µM)
2 | Cc1c(CCCNC(=O)CCc2c[nH]c3ccc(Cl)cc23)c2cc(OC(F)(F)F)ccc2n1C | 6.25 (≈ 12.7 µM)

test system: Mycolicibacterium fortuitum; experiment: Antitubercular activity against Mycobacterium fortuitum ATCC 19542 assessed as growth inhibition at 0.3125 to 5 ug/mL after 7 days by resazurin reduction test; type: functional; conditions: ATCC 19542, 168 h

Row | SMILES | MIC [µg/mL]
3 | Cc1c(CCCNC(=O)CCc2c[nH]c3ccc(Cl)cc23)c2cc(OC(F)(F)F)ccc2n1C | 10 (≈ 20.3 µM)

test system: Staphylococcus aureus; experiment: Antibacterial activity against Staphylococcus aureus ATCC 25923 assessed as growth inhibition after 16 to 18 hr by serial plate dilution method; type: functional; conditions: not given

Row | SMILES | MIC [µg/mL]
4 | O=C(CCc1c[nH]c2ccc(Cl)cc12)NCCCc1c[nH]c2ccc(Cl)cc12 | 25 (≈ 60.3 µM)
5 | Cc1c(CCCNC(=O)CCc2c[nH]c3ccc(Cl)cc23)c2cc(OC(F)(F)F)ccc2n1C | 12.5 (≈ 25.4 µM)

test system: Mycobacterium tuberculosis; experiment: Antitubercular activity against Mycobacterium tuberculosis H37Rv ATCC 27294 assessed as growth inhibition at 0.3125 to 5 ug/mL after 7 days by resazurin reduction test; type: functional; conditions: H37Rv ATCC 27294, 168 h

Row | SMILES | MIC [µg/mL]
6 | Cc1c(CCCNC(=O)CCc2c[nH]c3ccc(Cl)cc23)c2cc(OC(F)(F)F)ccc2n1C | 10 (≈ 20.3 µM)

test system: Klebsiella pneumoniae; experiment: Antibacterial activity against Klebsiella pneumoniae assessed as growth inhibition after 16 to 18 hr by serial plate dilution method; type: functional; conditions: not given

Row | SMILES | MIC [µg/mL]
7 | O=C(CCc1c[nH]c2ccc(Cl)cc12)NCCCc1c[nH]c2ccc(Cl)cc12 | 25 (≈ 60.3 µM)
8 | Cc1c(CCCNC(=O)CCc2c[nH]c3ccc(Cl)cc23)c2cc(OC(F)(F)F)ccc2n1C | 12.5 (≈ 25.4 µM)

test system: Trichophyton mentagrophytes; experiment: Antifungal activity against Trichophyton mentagrophytes assessed as growth inhibition at […] to […] ug/ml after 3 to 4 days by agar well diffusion method; type: functional; conditions: not given

Row | SMILES | diameter of the inhibition zone (DIZ) [mm]
9 | O=C(CCc1c[nH]c2ccc(Cl)cc12)NCCCc1c[nH]c2ccc(Cl)cc12 | 16
10 | Cc1c(CCCNC(=O)CCc2c[nH]c3ccc(Cl)cc23)c2cc(OC(F)(F)F)ccc2n1C | <10

test system: Streptococcus pyogenes; experiment: Antibacterial activity against Streptococcus pyogenes assessed as growth inhibition after 16 to 18 hr by serial plate dilution method; type: functional; conditions: not given

Row | SMILES | MIC [µg/mL]
11 | O=C(CCc1c[nH]c2ccc(Cl)cc12)NCCCc1c[nH]c2ccc(Cl)cc12 | 6.25 (≈ 15.1 µM)
12 | Cc1c(CCCNC(=O)CCc2c[nH]c3ccc(Cl)cc23)c2cc(OC(F)(F)F)ccc2n1C | 6.25 (≈ 12.7 µM)

test system: Mycolicibacterium smegmatis; experiment: Antitubercular activity against Mycobacterium smegmatis ATCC 19420 assessed as growth inhibition at 1 to 100 ug/mL after 7 days by resazurin reduction test; type: functional; conditions: ATCC 19420, 168 h

Row | SMILES | MIC [µg/mL]
13 | O=C(CCc1c[nH]c2ccc(Cl)cc12)NCCCc1c[nH]c2ccc(Cl)cc12 | > 100
14 | Cc1c(CCCNC(=O)CCc2c[nH]c3ccc(Cl)cc23)c2cc(OC(F)(F)F)ccc2n1C | > 100

test system: Pseudomonas aeruginosa; experiment: Antibacterial activity against Pseudomonas aeruginosa ATCC 27853 assessed as growth inhibition after 16 to 18 hr by serial plate dilution method; type: functional; conditions: not given

Row | SMILES | MIC [µg/mL]
15 | O=C(CCc1c[nH]c2ccc(Cl)cc12)NCCCc1c[nH]c2ccc(Cl)cc12 | 25 (≈ 60.3 µM)
16 | Cc1c(CCCNC(=O)CCc2c[nH]c3ccc(Cl)cc23)c2cc(OC(F)(F)F)ccc2n1C | 25 (≈ 50.8 µM)

test system: Candida albicans; experiment: Antifungal activity against Candida albicans assessed as growth inhibition after 3 to 4 days by serial plate dilution method; type: functional; conditions: not given

Row | SMILES | MIC [µg/mL]
17 | O=C(CCc1c[nH]c2ccc(Cl)cc12)NCCCc1c[nH]c2ccc(Cl)cc12 | 6.25 (≈ 15.1 µM)
18 | Cc1c(CCCNC(=O)CCc2c[nH]c3ccc(Cl)cc23)c2cc(OC(F)(F)F)ccc2n1C | 12.5 (≈ 25.4 µM)

test system: Aspergillus fumigatus; experiment: Antifungal activity against Aspergillus fumigatus NCIM 902 assessed as growth inhibition after 3 to 4 days by serial plate dilution method; type: functional; conditions: not given

Row | SMILES | MIC [µg/mL]
19 | O=C(CCc1c[nH]c2ccc(Cl)cc12)NCCCc1c[nH]c2ccc(Cl)cc12 | 6.25 (≈ 15.1 µM)
20 | Cc1c(CCCNC(=O)CCc2c[nH]c3ccc(Cl)cc23)c2cc(OC(F)(F)F)ccc2n1C | 25 (≈ 50.8 µM)

test system: Trichophyton mentagrophytes; experiment: Antifungal activity against Trichophyton mentagrophytes assessed as growth inhibition after 3 to 4 days by serial plate dilution method; type: functional; conditions: not given

Row | SMILES | MIC [µg/mL]
21 | O=C(CCc1c[nH]c2ccc(Cl)cc12)NCCCc1c[nH]c2ccc(Cl)cc12 | 6.25 (≈ 15.1 µM)
22 | Cc1c(CCCNC(=O)CCc2c[nH]c3ccc(Cl)cc23)c2cc(OC(F)(F)F)ccc2n1C | 25 (≈ 50.8 µM)

test system: Pseudomonas aeruginosa; type: functional, ATCC 27853; conditions: not given

Row | SMILES | diameter of the inhibition zone (DIZ) [mm]
23 | O=C(CCc1c[nH]c2ccc(Cl)cc12)NCCCc1c[nH]c2ccc(Cl)cc12 | <10
24 | Cc1c(CCCNC(=O)CCc2c[nH]c3ccc(Cl)cc23)c2cc(OC(F)(F)F)ccc2n1C | <10

test system: Mycobacterium tuberculosis; experiment: Antitubercular activity against Mycobacterium tuberculosis H37Rv ATCC 27294 assessed as growth inhibition at 1 to 100 ug/mL after 7 days by resazurin reduction test; type: functional; conditions: not given

Row | SMILES | growth inhibition (GI) [%]
25 | O=C(CCc1c[nH]c2ccc(Cl)cc12)NCCCc1c[nH]c2ccc(Cl)cc12 | 0
26 | Cc1c(CCCNC(=O)CCc2c[nH]c3ccc(Cl)cc23)c2cc(OC(F)(F)F)ccc2n1C | 90

same assay, conditions: Mycobacterium tuberculosis, H37Rv ATCC 27294, 168 h

Row | SMILES | MIC [µg/mL]
27 | O=C(CCc1c[nH]c2ccc(Cl)cc12)NCCCc1c[nH]c2ccc(Cl)cc12 | > 100
28 | Cc1c(CCCNC(=O)CCc2c[nH]c3ccc(Cl)cc23)c2cc(OC(F)(F)F)ccc2n1C | 10 (≈ 20.3 µM)

test system: Staphylococcus aureus; type: functional, ATCC 25923; conditions: not given

Row | SMILES | diameter of the inhibition zone (DIZ) [mm]
29 | O=C(CCc1c[nH]c2ccc(Cl)cc12)NCCCc1c[nH]c2ccc(Cl)cc12 | <10
30 | Cc1c(CCCNC(=O)CCc2c[nH]c3ccc(Cl)cc23)c2cc(OC(F)(F)F)ccc2n1C | 11

test system: Mycolicibacterium fortuitum; experiment: Antitubercular activity against Mycobacterium fortuitum ATCC 19542 assessed as growth inhibition at 1 to 100 ug/mL after 7 days by resazurin reduction test; type: functional; conditions: ATCC 19542, 168 h

Row | SMILES | MIC [µg/mL]
31 | O=C(CCc1c[nH]c2ccc(Cl)cc12)NCCCc1c[nH]c2ccc(Cl)cc12 | > 100
32 | Cc1c(CCCNC(=O)CCc2c[nH]c3ccc(Cl)cc23)c2cc(OC(F)(F)F)ccc2n1C | 10 (≈ 20.3 µM)

test system: Aspergillus flavus; experiment: Antifungal activity against Aspergillus flavus NCIM 524 assessed as growth inhibition at […] to […] ug/ml after 3 to 4 days by agar well diffusion method; type: functional; conditions: not given

Row | SMILES | diameter of the inhibition zone (DIZ) [mm]
33 | O=C(CCc1c[nH]c2ccc(Cl)cc12)NCCCc1c[nH]c2ccc(Cl)cc12 | 16
34 | Cc1c(CCCNC(=O)CCc2c[nH]c3ccc(Cl)cc23)c2cc(OC(F)(F)F)ccc2n1C | 16

test system: Talaromyces marneffei; experiment: Antifungal activity against Talaromyces marneffei assessed as growth inhibition after 3 to 4 days by serial plate dilution method; type: functional; conditions: not given

Row | SMILES | MIC [µg/mL]
35 | O=C(CCc1c[nH]c2ccc(Cl)cc12)NCCCc1c[nH]c2ccc(Cl)cc12 | 6.25 (≈ 15.1 µM)
36 | Cc1c(CCCNC(=O)CCc2c[nH]c3ccc(Cl)cc23)c2cc(OC(F)(F)F)ccc2n1C | 6.25 (≈ 12.7 µM)

test system: Talaromyces marneffei; experiment: Antifungal activity against Talaromyces marneffei assessed as growth inhibition at […] to […] ug/ml after 3 to 4 days by agar well diffusion method; type: functional; conditions: not given

Row | SMILES | diameter of the inhibition zone (DIZ) [mm]
37 | O=C(CCc1c[nH]c2ccc(Cl)cc12)NCCCc1c[nH]c2ccc(Cl)cc12 | 16
38 | Cc1c(CCCNC(=O)CCc2c[nH]c3ccc(Cl)cc23)c2cc(OC(F)(F)F)ccc2n1C | 16

test system: Aspergillus fumigatus; experiment: Antifungal activity against Aspergillus fumigatus NCIM 902 assessed as growth inhibition at […] to […] ug/ml after 3 to 4 days by agar well diffusion method; type: functional; conditions: not given

Row | SMILES | diameter of the inhibition zone (DIZ) [mm]
39 | O=C(CCc1c[nH]c2ccc(Cl)cc12)NCCCc1c[nH]c2ccc(Cl)cc12 | 16
40 | Cc1c(CCCNC(=O)CCc2c[nH]c3ccc(Cl)cc23)c2cc(OC(F)(F)F)ccc2n1C | <10

test system: Escherichia coli; type: functional, ATCC 24922; conditions: not given

Row | SMILES | diameter of the inhibition zone (DIZ) [mm]
41 | O=C(CCc1c[nH]c2ccc(Cl)cc12)NCCCc1c[nH]c2ccc(Cl)cc12 | <10
42 | Cc1c(CCCNC(=O)CCc2c[nH]c3ccc(Cl)cc23)c2cc(OC(F)(F)F)ccc2n1C | 11

test system: Escherichia coli; experiment: Antibacterial activity against Escherichia coli […] assessed as growth inhibition after 16 to 18 hr by serial plate dilution method; type: functional; conditions: not given

Row | SMILES | MIC [µg/mL]
43 | O=C(CCc1c[nH]c2ccc(Cl)cc12)NCCCc1c[nH]c2ccc(Cl)cc12 | 25 (≈ 60.3 µM)
44 | Cc1c(CCCNC(=O)CCc2c[nH]c3ccc(Cl)cc23)c2cc(OC(F)(F)F)ccc2n1C | 12.5 (≈ 25.4 µM)

test system: Candida albicans; experiment: Antifungal activity against Candida albicans assessed as growth inhibition at […] to […] ug/ml after 3 to 4 days by agar well diffusion method; type: functional; conditions: not given

Row | SMILES | diameter of the inhibition zone (DIZ) [mm]
45 | O=C(CCc1c[nH]c2ccc(Cl)cc12)NCCCc1c[nH]c2ccc(Cl)cc12 | 16
46 | Cc1c(CCCNC(=O)CCc2c[nH]c3ccc(Cl)cc23)c2cc(OC(F)(F)F)ccc2n1C | 11

test system: Klebsiella pneumoniae; type: functional; conditions: not given

Row | SMILES | diameter of the inhibition zone (DIZ) [mm]
47 | O=C(CCc1c[nH]c2ccc(Cl)cc12)NCCCc1c[nH]c2ccc(Cl)cc12 | <10
48 | Cc1c(CCCNC(=O)CCc2c[nH]c3ccc(Cl)cc23)c2cc(OC(F)(F)F)ccc2n1C | 11

test system: Streptococcus pyogenes; type: functional; conditions: not given

Row | SMILES | diameter of the inhibition zone (DIZ) [mm]
49 | O=C(CCc1c[nH]c2ccc(Cl)cc12)NCCCc1c[nH]c2ccc(Cl)cc12 | 16
50 | Cc1c(CCCNC(=O)CCc2c[nH]c3ccc(Cl)cc23)c2cc(OC(F)(F)F)ccc2n1C | 16
